In series [1] the test system is pulmonary circulation. The following applies: rat, in vivo. The text has this:
(§1) See Vavrek supra for assay methods.
Bradykinin and (NBzlGly^7)-bradykinin were virtually identical with respect to destruction (98-99%) on passage through the pulmonary circulation.

For series [2], the system named is rat uterus. Put plainly: Smooth muscle bioassay: rat uterus contraction. The series is classed as cell-based. The following applies: bradykinin = 100%.
Excerpt: as §1
Rat Uterus, rat uterus contraction;

Series [3] concerns guinea pig ileum. In words: Smooth muscle bioassay: guinea pig ileum contraction. The series is classed as cell-based. To be noted: bradykinin = 100%.
Excerpt: as §1
GP Ileum, guinea pig ileum contraction;

Series [4] relates to rat blood pressure. Put plainly: Rat blood pressure assay. The following applies: bradykinin = 100%. The series is classed as in vivo. An excerpt:
| See Vavrek supra for assay methods.

Consider two molecules from US5527882A, “Polypeptide having an amino acid replaced with N-benzylglycine” (The Regents of the University of California, priority 1994, dated 1996).

Square brackets hold non-standard residues; d marks the D form. Ends that are not written are not given here. Peptide text beside a SMILES is read from it.

In turn, `NC(N)=NCCC[C@H](NC(=O)[C@H](Cc1ccccc1)NC(=O)[C@@H](Cc1ccccc1)NC(=O)[C@H](CO)NC(=O)[C@H](Cc1ccccc1)NC(=O)CNC(=O)[C@@H]1CCCN1C(=O)[C@@H]1CCCN1C(=O)[C@@H](N)CCCN=C(N)N)C(=O)O` [[D-Phe^7]-Bradykinin, (D-Phe^7)-bradykinin] (H-RPPGFS[dF]FR-OH) showed a Destruction in series [1] of 36%.

As for RPPGFSPFR [Bradykinin], the “Smooth Muscle Rat Uterus (rat uterus contraction), potency relative to bradykinin” value in series [2] was determined as 100%. In series [3], the “Smooth Muscle GP Ileum (guinea pig ileum contraction), potency relative to bradykinin” value was found to be 100%. Also, the “Rat Blood Pressure IA, potency relative to bradykinin” value in series [4] (intraaortic administration) turned out to be 100%. For the same molecule, the “Rat Blood Pressure IV, potency relative to bradykinin” value in series [4] (intravenous administration) turned out to be 100%.
